# From patent publication US5968940A, “Retinoids and methods of use of same” (priority 1996, dated 1999)
# pEC50: −log10 of the molar value.
# Key:
# [1] = tested on: Human promyelocytic leukemia HL-60 cells; assay: Cell differentiation of HL-60 cells, nitroblue tetrazolium (NBT) reduction / morphology; format: cell-based
# Experimental: Human promyelocytic leukemia HL-60 cells were cultured in RPMI-1640 medium supplemented by 10% heat-inactivated calf serum and 100 U/ml of penicillin plus 100 μg/ml of streptomycin. The flasks containing cells and medium were incubated in an incubator with 5% CO2 at 37° C. Log phase cells were seeded into the medium at a concentration of 1.2×10^5to 1.4×10^5 cells per ml and cultured in flasks containing 5 ml of medium. Each group consisted of three flasks. Different concentrations of coumarin-retinoids were added. At intervals following the addition of coumarin-retinoids to the cultures, a small portion of cells was removed and live cells were counted under a light microscope using a dye-exclusionmethod with trypan blue. Cell differentiation was judged in terms of morphology and nitroblue tetrazolium (NBT) reduction.
# For a determination of NBT reducing activity, a portion of the coumarin-retinoid-treated cells was removed at intervals following treatment and centrifuged. After centrifugation, 0.5 ml of 0.1% NBT (containing 100 ng TPA) was added to each tube. The contents of the test tubes were then incubated for 1 hour at 37° C. Cell smears were prepared from the cell sediment and stained using the Wright-Giemsa technique. For each smear prepared, 200 cells were isolated for examination under a light microscope with an oil immersion lens. Cells stained with blue-black granules were considered NBT-positive cells. The 50% differentiation or effective concentration (ED50 or EC50) is shown in terms of molar (M) concentration of the […] tested.
# For a determination of cell morphology, a cell smear was prepared at intervals following treatment of cells for each coumarin-retinoid concentration group using the Wright-Giemsa stain technique. Stained cells were counted and classified under a light microscope with an oil immersion lens. After treatment with coumarin-retinoids, the morphological development of HL-60 cells proceeded toward mature granulocytes. This development was manifested by decreased cell volume; a lower nuclei to cytoplasm ratio; smaller or missing nuclei; concentration of chromatin; and the appearance of a certain proportion of intermediate and late granuloblasts (progranulocytes), elongated rod granulocytes, and granulocytes with branched nuclei.
# (§1) The protocols of Examples 14 and 21 were used, for the NBT and MTT assays, respectively.
# HL-60 cells = assay: MTT assay, inhibition of HL-60 cells; format: cell-based, human; conditions: HL-60, Table 15
# Experimental: Human cancer cell lines (KB, A2780, MCF-7, HL-60, A549) were used. For a monolayer culture, 0.5 ml of trypsin solution ([…]) was added to the flasks for digestion. Microtiter plates (96 well) were used for the cell culture and 200 μl of cell suspension (1200 tumor cells) were placed in each well and incubated at 37° C. for 24 hours. Following the addition of the test compound, the control and treated flasks were placed in a CO2 incubator for 5 day culture. For the MTT assay, 200 μl of MTT solution (5 mg in 10 ml of phosphate buffer) plus the medium were added and incubated for another 4 hours. Following incubation, the supernatant was discarded and 200 μl of DMSO was added to each well. With a mild agitation the OD values were determined by the MR 700 Elisa at 570 nm (reference wavelength was 450 nm). The ED50 of the compound and tumor cell survival rate [formula] as percent inhibition were calculated.
# as §1
# fetus absorption in mice = assay: Effect on fetus absorption in mice; format: in vivo
# Experimental: (§2) Female mice were examined by vaginal smear the morning after being caged with male mice, and if sperm or a vaginal plug was discovered, then the mice were determined to be pregnant. The retinoids were administered at the dosage indicated starting on the seventh day of pregnancy and continued once a day for the next ten days. On the 20th day after the female mice were determined to be pregnant, they were sacrificed by cervical dislocation. Both sides of the uterus were checked and the number of living embryos, dead embryos, and absorbed embryos were counted. The living embryos were further examined for bone abnormalities.
# [2] = tested on: bone abnormalities in mouse fetus; assay: Bone abnormalities in mouse fetus; format: in vivo
# Experimental: as §2
# After the embryos became transparent, they were dissected and their skeletons were checked by observation under a microscope.
# chondrosarcoma = assay: Growth of chondrosarcoma in rats; format: in vivo; conditions: for Body Weight final: in g (unit assumed)
# Text: Transplantable chondrosarcomas obtained from Dr. Trown, Hoffman--La Roche Institute of Molecular Biology and Wistar rats obtained from the Breeding Center of Experimental Animals, Chinese Academy of Medical Sciences were used. According to the routine transplantation protocol as described in Cancer Treatment Reports 60(11):1647-1653 (1976) where the small pieces of chondrosarcoma tumor were implanted subcutaneously in the right inguinal region of rats using a trocar. Tumor-bearing rats were randomized to a control group and a treated group. Each group consisted of ten rats. […] Sixty days after transplantation, the rats were sacrificed and the tumor weight was determined. The inhibition rate was calculated according to the following formula: [formula]
pEC50 (HL-60 cells; Homo sapiens),Structure (SMILES),NBT (+) % ([1]; 10^-5 M) [%],NBT (+) % ([1]; 10^-6 M) [%],NBT (+) % ([1]; 10^-7 M) [%],also measured
–,CCOC(=O)c1cc2ccc(OC(=O)/C=C(C)/C=C/C=C(C)/C=C/C3=C(C)CCCC3(C)C)cc2oc1=O [Compound I-17],84,54,2,–
5.49,"CC1=C(/C=C/C(C)=C/C=C/C(C)=C/C(=O)Oc2cc(OC(=O)/C=C(C)/C=C/C=C(C)/C=C/C3=C(C)CCCC3(C)C)c3c(C)cc(=O)oc3c2)C(C)(C)CCC1 [Compound I-33, 4-methyl-5,7-diretinoyloxy-coumarin]",–,–,–,–
5.59,"CC1=C(/C=C/C(C)=C/C=C/C(C)=C/C(=O)Oc2cc(=O)oc3ccc(C)cc23)C(C)(C)CCC1 [Compound I-35, 4-retinoyloxy-6-methyl-coumarin]",–,–,–,–
–,"CC1=C(/C=C/C(C)=C/C=C/C(C)=C/C(=O)Oc2ccc3c(C)cc(=O)oc3c2)C(C)(C)CCC1 [Compound I-32, 4-methyl-7-retinoyloxy-coumarin]",–,–,–,"pEC50 ([1]; HL-60, Table 15, read-out: NBT ED50): 4.89; pEC50 (HL-60 cells): 4.96"
–,CCOC(=O)c1cc2cc(Cl)c(OC(=O)/C=C(C)/C=C/C=C(C)/C=C/C3=C(C)CCCC3(C)C)cc2oc1=O [Compound I-18],44,8,–,–
–,CC(=O)c1cc2ccc(OC(=O)/C=C(C)/C=C/C=C(C)/C=C/C3=C(C)CCCC3(C)C)c(C)c2oc1=O [Compound I-3],88,77,12,–
–,CC(=O)c1cc2c(COC(=O)/C=C(C)/C=C/C=C(C)/C=C/C3=C(C)CCCC3(C)C)cc(OC(=O)/C=C(C)/C=C/C=C(C)/C=C/C3=C(C)CCCC3(C)C)cc2oc1=O [Compound I-7],85,65,12,–
–,CC1=C(/C=C/C(C)=C/C=C/C(C)=C/C(=O)Oc2cc3oc(=O)c(C(N)=O)cc3cc2Cl)C(C)(C)CCC1 [Compound I-27],88,80,17,–
–,"CCOC(=O)c1cc(OC(=O)/C=C(C)/C=C/C=C(C)/C=C/C2=C(C)CCCC2(C)C)cc2oc(=O)c(C(C)=O)cc12 [Compound I-11, 3-acetyl-5-ethoxycarbyl-7-retinoyloxy-coumarin]",72,49,8,NBT (+) % ([1]; 10^-4 M): 77%
–,CCOC(=O)c1cc2c(OC(=O)/C=C(C)/C=C/C=C(C)/C=C/C3=C(C)CCCC3(C)C)cc(OC(=O)/C=C(C)/C=C/C=C(C)/C=C/C3=C(C)CCCC3(C)C)cc2oc1=O [Compound I-21],94,80,41,NBT (+) % ([1]; 10^-8 M): 17%
< 5.00,"CCCCCCc1cc2c(C)cc(=O)oc2cc1OC(=O)/C=C(C)/C=C/C=C(C)/C=C/C1=C(C)CCCC1(C)C [Compound I-34, 4-methyl-6-hexyl-7-retinoyloxy-coumarin]",–,–,–,–
< 5.00,CC1=C(/C=C/C(C)=C/C=C/C(C)=C/C(=O)Oc2ccc3c(C)cc(=O)oc3c2C)C(C)(C)CCC1 [Compound I-30],–,–,–,–
< 5.00,"CCc1cc2c(C)cc(=O)oc2cc1OC(=O)/C=C(C)/C=C/C=C(C)/C=C/C1=C(C)CCCC1(C)C [Compound I-31, 4-methyl-6-ethyl-7-retinoyloxy-coumarin]",–,–,–,–
–,CC(=O)c1cc2ccc(OC(=O)/C=C(C)/C=C/C=C(C)/C=C/C3=C(C)CCCC3(C)C)c(OC(=O)/C=C(C)/C=C/C=C(C)/C=C/C3=C(C)CCCC3(C)C)c2oc1=O [Compound I-9],96,88,55,"NBT (+) % ([1]; 10^-8 M): 31%; Fetus Absorption, absorbed number/implanted number (fetus absorption in mice; 20 mg/kg once a day from day 7 of pregnancy): 0/113; Fetus Absorption, absorbed number/implanted number (fetus absorption in mice; 40 mg/kg once a day from day 7 of pregnancy): 0/119; Delayed Calcification, Occipital delay/fetus number ([2]; 20 mg/kg): 0/75; Delayed Calcification, Sternum delay/fetus number ([2]; 20 mg/kg): 0/75; Delayed Calcification, Occipital delay/fetus number ([2]; 40 mg/kg): 3/77; Delayed Calcification, Sternum delay/fetus number ([2]; 40 mg/kg): 2/77"
–,CCOC(=O)c1cc2c(C(=O)O)cc(OC(=O)/C=C(C)/C=C/C=C(C)/C=C/C3=C(C)CCCC3(C)C)cc2oc1=O [Compound I-19],84,5,–,NBT (+) % ([1]; 10^-4 M): 92%
–,CC(=O)c1cc2c(OC(=O)/C=C(C)/C=C/C=C(C)/C=C/C3=C(C)CCCC3(C)C)c(C(=O)O)ccc2oc1=O [Compound I-8],98,69,55,NBT (+) % ([1]; 10^-8 M): 34%
5.49,"CC1=C(/C=C/C(C)=C/C=C/C(C)=C/C(=O)Oc2ccc3c(C)cc(=O)oc3c2OC(=O)/C=C(C)/C=C/C=C(C)/C=C/C2=C(C)CCCC2(C)C)C(C)(C)CCC1 [Compound I-36, 4-methyl-7,8-diretinoyloxy-coumarin]",–,–,–,–
–,CCCCCCCCCCCCOC(=O)c1cc(OC(=O)/C=C(C)/C=C/C=C(C)/C=C/C2=C(C)CCCC2(C)C)c(OC(=O)/C=C(C)/C=C/C=C(C)/C=C/C2=C(C)CCCC2(C)C)c2oc(=O)c(C(=O)OCC)cc12 [Compound I-12],82,47,30,NBT (+) % ([1]; 10^-8 M): 0%; NBT (+) % ([1]; 10^-9 M): 0%
–,"CC(=O)c1cc2c(C(=O)O)cc(OC(=O)/C=C(C)/C=C/C=C(C)/C=C/C3=C(C)CCCC3(C)C)cc2oc1=O [Compound I-4, 3-acetyl-5-carboxy-7-retinoyloxy coumarin]",92,84,73,NBT (+) % ([1]; 10^-8 M): 15%
–,CC(=O)c1cc2c(C)cc(OC(=O)/C=C(C)/C=C/C=C(C)/C=C/C3=C(C)CCCC3(C)C)cc2oc1=O [Compound I-2],84,38,2,–
< 5.00,"CC1=C(/C=C/C(C)=C/C=C/C(C)=C/C(=O)Oc2cc(=O)oc3ccc(C(C)(C)C)cc23)C(C)(C)CCC1 [Compound I-28, 4-retinoyloxy-6-t-butyl-coumarin]",–,–,–,–
–,CC1=C(/C=C/C(C)=C/C=C/C(C)=C/C(=O)Oc2cc(C(=O)O)c3cc(C(N)=O)c(=O)oc3c2)C(C)(C)CCC1 [Compound I-26],97,91,53,NBT (+) % ([1]; 10^-8 M): 34%
–,CC1=C(/C=C/C(C)=C/C=C/C(C)=C/C(=O)Nc2ncnc3c2ncn3C(=O)/C=C(C)/C=C/C=C(C)/C=C/C2=C(C)CCCC2(C)C)C(C)(C)CCC1 [II-A],–,–,–,"Absorbed Number (fetus absorption in mice; 20 mg/kg, implanted number 141, 12 pregnant mice): 10; Absorbed Number (fetus absorption in mice; 40 mg/kg, implanted number 181, 15 pregnant mice): 17; Animals final (chondrosarcoma; 2 mg/kg × 10, initial 10): 9; Body Weight final (chondrosarcoma; 2 mg/kg × 10, initial 74.1): 130.6; Inhibition rate (%) (chondrosarcoma; 5 mg/kg × 10 (Table 14)): 62.6%; Tumor Weight (chondrosarcoma; 5 mg/kg × 10 (Table 14)): 4.0 grams; Animals final (chondrosarcoma; 5 mg/kg × 10, initial 10 (Table 14)): 9; Body Weight final (chondrosarcoma; 5 mg/kg × 10, initial 71.7 (Table 14)): 129.2"
5.72,CC1=C(/C=C/C(C)=C/C=C/C(C)=C/C(=O)Oc2cc(=O)oc3c(C)cccc23)C(C)(C)CCC1 [Compound I-29],–,–,–,–
–,CCOC(=O)c1cc2ccc(OC(=O)/C=C(C)/C=C/C=C(C)/C=C/C3=C(C)CCCC3(C)C)c(C)c2oc1=O [Compound I-15],93,84,46,NBT (+) % ([1]; 10^-8 M): 12%
